This is an account of results in publication PMC6515293 (Molecules, 2019).

“Also recorded” adds a separate entry of the source.

The test system of one data set is male rats. The arrangement: method as in PMID 17654256. The note with it: cited from earlier work.
Data set [1] has as its system YES and YAS Saccharomyces cerevisiae yeasts. The data set is described as follows: Yeast cytotoxicity (growth factor, absorbance at 690 nm).
The test system of a further data set is fetal testis. The note with it: cited from earlier work.
The subject of data set [2] is estrogen responsive elements (ERE-luc or AP-1-luc). The arrangement: method as in PMID 20209442. The note with it: 10 μM of MEHP; cited from earlier work.
A further data set deals with human ERα. The arrangement: method as in PMID 15840436. The note with it: 10.0 μM of MEHP in the presence of 10.0 pM E2; cited from earlier work.
For another data set, the system named is budding yeast. The arrangement: method as in PMID 29783050. The note with it: cited from earlier work.
A further data set deals with MCF-7 cells. Also noted: method as in PMID 12913283. The note with it: cited from earlier work.
A further data set concerns estrogen receptor. The arrangement: method as in PMID 26272952. The note with it: computational network model; cited from earlier work.

In the case of `CCCCC(CC)COC(=O)c1ccccc1C(=O)O` (stereo not drawn) [MEHP, mono-(2-ethylhexyl) phthalate], in the data set on male rats, the “weights of ventral prostate, seminal vesicles and levator ani/bulbocavernosus (LABC)” value is recorded as “decreased weights”. Moreover, the “cytotoxicity (yeast cell viability)” value in data set [1] (100 nM to 1.00 mM) is “did not induce yeast toxicity; also recorded: no effect”; in data set [1] (10.0 mM, growth factor below 0.5), “significant cytotoxicity”. Moreover, in the data set with fetal testis, the testosterone production entry is on record as “did not affect”. The estrogenic activity entry in data set [2] is on record as “estrogenic effect”. In addition, the anti-estrogenic activity result with human ERα is given as “no anti-estrogenic activity”; with MCF-7 cells it was “decrease of natural estrogenic activity”; in the data set with estrogen receptor, “no anti-estrogenic activity”. For the same molecule, in the data set with budding yeast, the “concentration at which cytotoxicity was induced” value was 1600 µM.
